Bounds are passed on as bounds.

One data set concerns SARS-CoV-2. Put plainly: Antiviral activity against SARS-CoV-2 England/2/2022 assessed as reduction in viral infection. Type of data set: functional, organism-based. As to conditions: Severe acute respiratory syndrome coronavirus 2, England/2/2022.
Data set [1] is described as follows: Inhibition of full length human recombinant Endoplasmic reticulum alpha-glucosidase 1 expressed in Escherichia coli using trisaccharide as substrate incubated for 60 mins.
A short description of data set [2]: Cytotoxicity against African green monkey Vero cells assessed as reduction in cell viability incubated for 3 to 5 days by Cell titer-glo luminescent assay. Type of data set: toxicity, cell-based. Conditions: chlorocebus sabaeus, time 3-5 day. (Cellular ATP, detected with luciferase, serves as a proxy for viable cell number.)
Data set [3] in a line: Selectivity index, ratio of CC50 for cytotoxicity against African green monkey Vero cells to IC50 for antiviral activity against DENV New Guinea C strain infected in African green monkey Vero cells. Type of data set: toxicity, cell-based. As to conditions: read-out: Ratio CC50/IC50.
The nature of data set [4]: Inhibition of full length N-terminal his6-tagged mouse recombinant Endoplasmic reticulum alpha-glucosidase 2 expressed in DH10 Escherichia coli using Fluorogenic 1,4-methyl-lumbelliferon as substrate preincubated for 60 mins followed by substrate addition and measured after 30 mins.
The next data set deals with Dengue virus type 2. The data set is described as follows: Antiviral activity against DENV New Guinea C strain infected in African green monkey Vero cells assessed as reduction in viral infection measured after 5 days by plaque assay. Conditions: 120 h.

For the compound `CCCCN1C[C@H](O)[C@@H](O)[C@H](O)[C@H]1CO`, the IC50 (usually the concentration at which inhibition is half-maximal) in the data set on SARS-CoV-2 amounted to 42.2 µM.

For the compound `O=[N+]([O-])c1cc(-n2nccn2)ccc1NCCCCCCN[C@H]1C[C@](O)(CO)[C@@H](O)[C@H](O)[C@H]1O`, the IC50 in data set [1] was 0.0479 µM; with SARS-CoV-2 it was over 100 µM; in data set [4], under 0.001 µM; in the data set on Dengue virus type 2, 18.2 µM. Further, the CC50 – broadly, the concentration at which the toxic effect on the cells reaches its halfway point – in data set [2] came out at 126 µM. For the same compound, in data set [3], the selectivity ratio stood at 6.9.

With `[N-]=[N+]=Nc1ccc(NCCCCCCN[C@H]2C[C@](O)(CO)[C@@H](O)[C@H](O)[C@H]2O)c([N+](=O)[O-])c1`, the IC50 in data set [1] was determined as 0.73 µM; in the data set with SARS-CoV-2, 12.3 µM; in data set [4] it was 0.0337 µM; with Dengue virus type 2, 1.38 µM. Besides, the CC50 in data set [2] was found to be 122 µM. In addition, the selectivity ratio in data set [3] came out at 88.

With `COCCCCCCCCCN[C@H]1C[C@](O)(CO)[C@@H](O)[C@H](O)[C@H]1O`, the IC50 was found to be 10.8 µM in data set [1], 270 µM in the data set with SARS-CoV-2, 0.49 µM in data set [4] and 75.9 µM in the data set with Dengue virus type 2. In data set [2], the CC50 worked out at 1070 µM.

For the compound `O=[N+]([O-])c1cc(-n2cnnn2)ccc1NCCCCCCN[C@H]1C[C@](O)(CO)[C@@H](O)[C@H](O)[C@H]1O`, the IC50 was 32 µM in data set [1], 1.42 µM in data set [4] and over 1000 µM in the data set on Dengue virus type 2. Further, in data set [2], the 50% cytotoxic concentration (CC50) is 1360 µM.

Regarding `[N-]=[N+]=Nc1ccc(NCCOCCN[C@H]2C[C@](O)(CO)[C@@H](O)[C@H](O)[C@H]2O)c([N+](=O)[O-])c1`, the IC50 in data set [1] was 3.66 µM; in data set [4], 37 µM; in the data set on Dengue virus type 2, 293 µM. Besides, the CC50 in data set [2] was 1750 µM.

`[N-]=[N+]=Nc1ccc(NCCCCN[C@H]2C[C@](O)(CO)[C@@H](O)[C@H](O)[C@H]2O)c([N+](=O)[O-])c1`: the IC50 in data set [1] amounted to 2.42 µM; with SARS-CoV-2, 9.48 µM; in data set [4] it was 1.01 µM; in the data set on Dengue virus type 2, 61.4 µM. In data set [2], the CC50 is 1020 µM.

Take `CCCCN[C@H]1C[C@](O)(CO)[C@@H](O)[C@H](O)[C@H]1O`: the IC50 came to 29.5 µM in data set [1] and 158 µM with Dengue virus type 2. The CC50 in data set [2] is over 1000 µM.

Regarding `O=[N+]([O-])c1cc(-n2ccnn2)ccc1NCCCCCCN[C@H]1C[C@](O)(CO)[C@@H](O)[C@H](O)[C@H]1O`, the IC50 is 1.27 µM in data set [1], 292 µM with SARS-CoV-2, 0.0155 µM in data set [4] and 13.5 µM with Dengue virus type 2. Moreover, the CC50 in data set [2] came to 1380 µM. The selectivity ratio in data set [3] is 102.

In the case of `O=[N+]([O-])c1cc(-c2ncccn2)ccc1NCCCCCCN[C@H]1C[C@](O)(CO)[C@@H](O)[C@H](O)[C@H]1O`, the IC50 in data set [1] was determined as 0.644 µM; in the data set with SARS-CoV-2, 70 µM; in data set [4], 0.0011 µM; with Dengue virus type 2 it was 105 µM. In addition, the 50% cytotoxic concentration (CC50) in data set [2] was 762 µM.

Regarding `[N-]=[N+]=Nc1ccc(NCCOC(=O)NCCN[C@H]2C[C@](O)(CO)[C@@H](O)[C@H](O)[C@H]2O)c([N+](=O)[O-])c1`, the IC50 is 1.13 µM in data set [1], 53.7 µM with SARS-CoV-2 and over 1000 µM in the data set on Dengue virus type 2. Further, in data set [2], the CC50 is over 1000 µM.

As for `N[C@H]1C[C@](O)(CO)[C@@H](O)[C@H](O)[C@H]1O` [VALIOLAMINE], the IC50 was 87.4 µM in data set [1], over 1000 µM with SARS-CoV-2, over 100 µM in data set [4] and over 1000 µM with Dengue virus type 2. In addition, in data set [2], the CC50 is 831 µM.

Values taken from ChEMBL document CHEMBL5150012, “N-Substituted Valiolamine Derivatives as Potent Inhibitors of Endoplasmic Reticulum α-Glucosidases I and II with Antiviral Activity” (J Med Chem, 2021).
